Results: patent publication US20160272626A1, “PYRAZINE DERIVATIVES” (HOFFMANN-LA ROCHE INC., priority 2012, published 2016)
Where a name gives a salt, the structure may show the parent alone.

Legend:
[1] = biological target: T1, rat TAAR1 (Rattus norvegicus, UniProt Q923Y9); test: Radioligand binding assay on rat TAAR1; conditions: rat TAAR1, HEK-293 membranes, second value of cell mouse/rat
T1 construct: expressed in transfected cells; membrane preparation
Procedure: (§1) For the construction of expression plasmids the coding sequences of human, rat and mouse TAAR 1 were amplified from genomic DNA essentially as described by Lindemann et al.. The Expand High Fidelity PCR System (Roche Diagnostics) was used with 1.5 mM Mg^2+ and purified PCR products were cloned into pCR2.1-TOPO cloning vector (Invitrogen) following the instructions of the manufacturer. PCR products were subcloned into the pIRESneo2 vector (BD Clontech, Palo Alto, Calif.), and expression vectors were sequence verified before introduction in cell lines.
(§2) HEK293 cells (ATCC # CRL-1573) were cultured essentially as described by Lindemann et al. (2005). For the generation of stably transfected cell lines HEK293 cells were transfected with the pIRESneo2 expression plasmids containing the TAAR coding sequences (described above) with Lipofectamine 2000 (Invitrogen) according to the instructions of the manufacturer, and 24 hrs post transfection the culture medium was supplemented with 1 mg/ml G418 (Sigma, Buchs, Switzerland). After a culture period of about 10 d clones were isolated, expanded and tested for responsiveness to trace amines (all compounds purchased from Sigma) with the cAMP Biotrak Enzyme immunoassay (EIA) System (Amersham) following the non-acetylation EIA procedure provided by the manufacturer.
Radioligand Binding Assay on Rat TAAR1
(§3) Membrane Preparation and Radioligand Binding.
HEK-293 cells stably expressing rat TAAR1 were maintained at 37° C. and 5% CO2 in DMEM high glucose medium, containing fetal calf serum (10%, heat inactivated for 30 min at 56° C.), penicillin/streptomycin (1%), and 375 μg/ml geneticin (Gibco). Cells were released from culture flasks using trypsin/EDTA, harvested, washed twice with ice-cold PBS (without Ca^2+ and Mg^2+), pelleted at 1,000 rpm for 5 min at 4° C., frozen and stored at −80° C. Frozen pellets were suspended in 20 ml HEPES-NaOH (20 mM, pH 7.4) containing 10 mM EDTA and homogenized with a Polytron (PT 6000, Kinematica) at 14,000 rpm for 20 s. The homogenate was centrifuged at 48,000×g for 30 min at 4° C. Subsequently, the supernatant was removed and discarded, and the pellet resuspended in 20 ml HEPES-NaOH (20 mM, pH 7.4) containing 0.1 mM EDTA using the Polytron (20 s at 14,000 rpm). This procedure was repeated and the final pellet resuspended in HEPES-NaOH containing 0.1 mM EDTA and homogenized using the Polytron. Typically, aliquots of 2 ml membrane portions were stored at −80° C. With each new membrane batch the dissociation constant (Kd) was determined via a saturation curve. […] Nonspecific binding was defined as the amount of ^3[H]—(S)-4-[(ethyl-phenyl-amino)-methyl]-4,5-dihydro-oxazol-2-ylamine bound in the presence of 10 μM unlabeled ligand. All compounds were tested at a broad range of concentrations (10 pM to 10 μM) in duplicates. The test compounds (20 μl/well) were transferred into a 96 deep well plate (TreffLab), and 180 μl of HEPES-NaOH (20 mM, pH 7.4) containing MgCl2 (10 mM) and CaCl2 (2 mM) (binding buffer), 300 μl of the radioligand ^3[H]—(S)-4-[(ethyl-phenyl-amino)-methyl]-4,5-dihydro-oxazol-2-ylamine at a concentration of 3.3×Kd in nM and 500 μl of the membranes (resuspended at 50 μg protein per ml) added. The 96 deep well plates were incubated for 1 hr at 4° C. Incubations were terminated by rapid filtration through Unifilter-96 plates (Packard Instrument Company) and glass filters GF/C (Perkin Elmer) presoaked for 1 hr in polyethylenimine (0.3%) and washed 3 times with 1 ml of cold binding buffer. After addition of 45 μl of Microscint 40 (PerkinElmer) the Unifilter-96 plate was sealed and after 1 hr the […] counted using a TopCount Microplate Scintillation Counter (Packard Instrument Company).

[2] = biological target: T2, mouse TAAR1 (Mus musculus, UniProt Q923Y8); test: Radioligand binding assay on mouse TAAR1; conditions: mouse TAAR1, HEK-293 membranes, first value of cell mouse/rat
T2 construct: expressed in transfected cells; membrane preparation
Procedure: as §1, §2
Radioligand Binding Assay on Mouse TAAR1
as §3
HEK-293 cells stably expressing mouse TAAR1 were maintained at 37° C. and 5% CO2 in DMEM high glucose medium, containing fetal calf serum (10%, heat inactivated for 30 min at 56° C.), penicillin/streptomycin (1%), and 375 μg/ml geneticin (Gibco). Cells were released from culture flasks using trypsin/EDTA, harvested, washed twice with ice-cold PBS (without Ca^2+ and Mg^2+), pelleted at 1,000 rpm for 5 min at 4° C., frozen and stored at −80° C. Frozen pellets were suspended in 20 ml HEPES-NaOH (20 mM, pH 7.4) containing 10 mM EDTA and homogenized with a Polytron (PT 6000, Kinematica) at 14,000 rpm for 20 s. The homogenate was centrifuged at 48,000×g for 30 min at 4° C. Subsequently, the supernatant was removed and discarded, and the pellet resuspended in 20 ml HEPES-NaOH (20 mM, pH 7.4) containing 0.1 mM EDTA using the Polytron (20 s at 14,000 rpm). This procedure was repeated and the final pellet resuspended in HEPES-NaOH containing 0.1 mM EDTA and homogenized using the Polytron. Typically, aliquots of 2 ml membrane portions were stored at −80° C. With each new membrane batch the dissociation constant (Kd) was determined via a saturation curve. The TAAR1 radioligand ^3[H]—(S)-4-[(ethyl-phenyl-amino)-methyl]-4,5-dihydro-oxazol-2-ylamine (described in WO 2008/098857) was used at a concentration equal to the calculated Kd value, that was usually around 0.7 nM, resulting in the binding of approximately 0.5% of the radioligand and a specific binding representing approximately 70% of the total binding. Nonspecific binding was defined as the amount of ^3[H]—(S)-4-[(ethyl-phenyl-amino)-methyl]-4,5-dihydro-oxazol-2-ylamine bound in the presence of 10 μM unlabeled ligand. All compounds were tested at a broad range of concentrations (10 pM to 10 μM) in duplicates. The test compounds (20 μl/well) were transferred into a 96 deep well plate (TreffLab), and 180 μl of HEPES-NaOH (20 mM, pH 7.4) containing MgCl2 (10 mM) and CaCl2 (2 mM) (binding buffer), 300 μl of the radioligand ^3[H]—(S)-4-[(ethyl-phenyl-amino)-methyl]-4,5-dihydro-oxazol-2-ylamine at a concentration of 3.3×Kd in nM and 500 μl of the membranes (resuspended at 60 μg protein per ml) added. The 96 deep well plates were incubated for 1 hr at 4° C. Incubations were terminated by rapid filtration through Unifilter-96 plates (Packard Instrument Company) and glass filters GF/C (Perkin Elmer) presoaked for 1 hr in polyethylenimine (0.3%) and washed 3 times with 1 ml of cold binding buffer. […]

T2 sequence (Q923Y8 whole entry): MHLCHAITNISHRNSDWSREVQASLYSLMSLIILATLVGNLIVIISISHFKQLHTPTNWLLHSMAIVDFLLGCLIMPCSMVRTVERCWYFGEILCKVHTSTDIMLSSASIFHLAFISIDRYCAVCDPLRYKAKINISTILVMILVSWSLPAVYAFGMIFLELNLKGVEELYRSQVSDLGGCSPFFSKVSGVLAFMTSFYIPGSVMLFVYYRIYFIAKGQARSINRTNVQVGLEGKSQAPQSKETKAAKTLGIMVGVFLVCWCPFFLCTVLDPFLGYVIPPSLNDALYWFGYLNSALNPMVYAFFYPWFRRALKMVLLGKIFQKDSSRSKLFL
T1 sequence (Q923Y9 whole entry): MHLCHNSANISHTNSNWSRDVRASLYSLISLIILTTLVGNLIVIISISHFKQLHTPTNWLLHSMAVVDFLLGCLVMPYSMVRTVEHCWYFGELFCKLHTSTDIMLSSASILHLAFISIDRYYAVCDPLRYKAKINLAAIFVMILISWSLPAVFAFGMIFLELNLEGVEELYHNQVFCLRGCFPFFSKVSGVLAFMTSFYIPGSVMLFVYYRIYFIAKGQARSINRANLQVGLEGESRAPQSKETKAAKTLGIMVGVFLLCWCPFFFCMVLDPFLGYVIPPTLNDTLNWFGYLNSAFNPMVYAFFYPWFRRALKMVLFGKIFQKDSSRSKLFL

Compound	Ki [1]	Ki [2]
O=C(Nc1ccc([C@@H]2CNCCO2)c(F)c1)c1cnc(C(F)(F)F)cn1 [Example 1, (R)—N-(3-Fluoro-4-(morpholin-2-yl)phenyl)-5-(trifluoromethyl)pyrazine-2-carboxamide hydrochloride]	0.009 µM	0.0115 µM
N#Cc1cc(NC(=O)c2cnc(C(F)(F)F)cn2)ccc1[C@@H]1CNCCO1 [Example 2, (R)—N-(3-Cyano-4-(morpholin-2-yl)phenyl)-5-(trifluoromethyl)pyrazine-2-carboxamide hydrochloride]	0.0186 µM	0.0184 µM
N#Cc1cc(NC(=O)c2cnc(C(F)(F)F)cn2)ccc1[C@H]1CNCCO1 [Example 3, (S)—N-(3-Cyano-4-(morpholin-2-yl)phenyl)-5-(trifluoromethyl)pyrazine-2-carboxamide hydrochloride]	1.09 µM	0.0204 µM
N#Cc1cc(NC(=O)c2cncc(C(F)(F)F)n2)ccc1[C@@H]1CNCCO1 [Example 4, (R)—N-(3-Cyano-4-(morpholin-2-yl)phenyl)-6-(trifluoromethyl)pyrazine-2-carboxamide hydrochloride]	0.0344 µM	0.0833 µM
O=C(Nc1ccc([C@H]2CNCCO2)c(F)c1)c1cncc(C(F)(F)F)n1 [Example 5, (S)—N-(3-Fluoro-4-(morpholin-2-yl)phenyl)-6-(trifluoromethyl)pyrazine-2-carboxamide hydrochloride]	0.054 µM	0.038 µM
O=C(Nc1ccc([C@@H]2CNCCO2)c(F)c1)c1cncc(C(F)(F)F)n1 [Example 6, (R)—N-(3-Fluoro-4-(morpholin-2-yl)phenyl)-6-(trifluoromethyl)pyrazine-2-carboxamide hydrochloride]	0.0197 µM	0.0328 µM
COc1cncc(C(=O)Nc2ccc([C@@H]3CNCCO3)c(F)c2)n1 [Example 7, (R)—N-(3-Fluoro-4-(morpholin-2-yl)phenyl)-6-methoxypyrazine-2-carboxamide hydrochloride]	0.068 µM	0.147 µM
COc1cnc(C(=O)Nc2ccc([C@@H]3CNCCO3)c(F)c2)cn1 [Example 8, (R)—N-(3-Fluoro-4-(morpholin-2-yl)phenyl)-5-methoxypyrazine-2-carboxamide hydrochloride]	0.0476 µM	0.0107 µM
COc1cncc(C(=O)Nc2ccc([C@H]3CNCCO3)c(F)c2)n1 [Example 9, (S)—N-(3-Fluoro-4-(morpholin-2-yl)phenyl)-6-methoxypyrazine-2-carboxamide hydrochloride]	0.247 µM	0.0314 µM
COc1cnc(C(=O)Nc2ccc([C@H]3CNCCO3)c(F)c2)cn1 [Example 10, (S)—N-(3-Fluoro-4-(morpholin-2-yl)phenyl)-5-methoxypyrazine-2-carboxamide hydrochloride]	0.54 µM	0.0136 µM

Next, values leading:

Ki [1]	Ki [2]	Compound
0.0119 µM	0.0046 µM	O=C(Nc1ccc([C@H]2CNCCO2)c(F)c1)c1cnc(OCC2CCC2)cn1 [Example 11, (S)-5-(Cyclobutylmethoxy)-N-(3-fluoro-4-(morpholin-2-yl)phenyl)pyrazine-2-carboxamide hydrochloride]
0.04 µM	0.0045 µM	O=C(Nc1ccc([C@H]2CNCCO2)c(F)c1)c1cnc(OCC2CC2)cn1 [Example 12, (S)-5-(Cyclopropylmethoxy)-N-(3-fluoro-4-(morpholin-2-yl)phenyl)pyrazine-2-carboxamide hydrochloride]
0.11 µM	0.0041 µM	CCOc1cnc(C(=O)Nc2ccc([C@H]3CNCCO3)c(F)c2)cn1 [Example 13, (S)-5-Ethoxy-N-(3-fluoro-4-(morpholin-2-yl)phenyl)pyrazine-2-carboxamide hydrochloride]
0.0222 µM	0.0028 µM	O=C(Nc1ccc([C@H]2CNCCO2)c(F)c1)c1cnc2ccccc2n1 [Example 14, (S)—N-(3-Fluoro-4-(morpholin-2-yl)phenyl)quinoxaline-2-carboxamide hydrochloride]
0.0131 µM	0.0068 µM	Cc1ccc2ncc(C(=O)Nc3ccc([C@H]4CNCCO4)c(F)c3)nc2c1 [Example 15, 7-Methyl-quinoxaline-2-carboxylic acid ((S)-3-fluoro-4-morpholin-2-yl-phenyl)-amide hydrochloride]
0.191 µM	0.0193 µM	O=C(Nc1ccc([C@H]2CNCCO2)c(F)c1)c1cnc(N2CC(F)(F)C2)cn1 [Example 16, 5-(3,3-Difluoro-azetidin-1-yl)-pyrazine-2-carboxylic acid ((S)-3-fluoro-4-morpholin-2-yl-phenyl)-amide hydrochloride]
0.0076 µM	0.0072 µM	O=C(Nc1ccc([C@@H]2CNCCO2)c(F)c1)c1cnc(C2CC2)cn1 [Example 17, 5-Cyclopropyl-pyrazine-2-carboxylic acid ((R)-3-fluoro-4-morpholin-2-yl-phenyl)-amide hydrochloride]
0.0625 µM	0.0036 µM	O=C(Nc1ccc([C@H]2CNCCO2)c(F)c1)c1cnc(C2CC2)cn1 [Example 18, 5-Cyclopropyl-pyrazine-2-carboxylic acid ((S)-3-fluoro-4-morpholin-2-yl-phenyl)-amide hydrochloride]
0.235 µM	0.0061 µM	O=C(Nc1ccc([C@H]2CNCCO2)cc1F)c1cnc(C2CC2)cn1 [Example 19, (S)-5-Cyclopropyl-N-(2-fluoro-4-(morpholin-2-yl)phenyl)pyrazine-2-carboxamide]
0.0708 µM	0.0099 µM	O=C(Nc1ccc([C@@H]2CNCCO2)cc1F)c1cnc(C2CC2)cn1 [Example 20, (R)-5-Cyclopropyl-N-(2-fluoro-4-(morpholin-2-yl)phenyl)pyrazine-2-carboxamide]
